This note sets out measurements from ChEMBL document CHEMBL1134953, “Two selective novel triterpene glycosides from sea cucumber, Telenata Ananas: inhibitors of chemokine receptor-5” (Bioorg Med Chem Lett, 2002).

The test has as its target C-C chemokine receptor type 5 (Homo sapiens, UniProt P51681). The test can be described thus: Inhibitory activity against human CCR5 chemokine receptor (CCR5) expressed in CHO cells. It counts as cell-based.

C-C chemokine receptor type 5, sequence (P51681 whole entry): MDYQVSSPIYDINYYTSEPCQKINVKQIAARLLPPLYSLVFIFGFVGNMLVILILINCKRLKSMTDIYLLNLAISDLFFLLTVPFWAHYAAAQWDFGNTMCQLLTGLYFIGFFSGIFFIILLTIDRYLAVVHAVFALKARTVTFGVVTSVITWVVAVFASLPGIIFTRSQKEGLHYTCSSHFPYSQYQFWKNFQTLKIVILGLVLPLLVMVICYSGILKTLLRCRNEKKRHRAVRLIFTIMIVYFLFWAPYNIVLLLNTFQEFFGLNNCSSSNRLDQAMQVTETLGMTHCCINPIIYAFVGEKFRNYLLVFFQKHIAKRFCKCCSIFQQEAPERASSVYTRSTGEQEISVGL

One may read the Ki as a measure of affinity in units of concentration, obtained from inhibition or displacement. A low value points to tighter binding. `COC1[C@@H](O)C(OC2[C@@H](O)[C@H](O[C@H]3[C@H](O)[C@@H](O)[C@H](O[C@H]4[C@H](O[C@H]5CC[C@]6(C)C7=C[C@H](O)C89C(=O)O[C@@](C)(CCCC(C)C)C8CC[C@@]9(C)C7CCC6C5(C)C)OC[C@@H](O[C@@H]5O[C@H](CO)[C@@H](O)[C@H](OC6O[C@H](CO)[C@@H](O)[C@H](OC)[C@H]6O)[C@H]5O)[C@@H]4O)O[C@@H]3C)O[C@H](CO)[C@H]2O)O[C@H](CO)[C@H]1O` (some centres not stated): the Ki came out at 5.1 µM.

`C[C@H]1O[C@@H](O[C@H]2[C@H](O[C@H]3CC[C@]4(C)C5=C[C@H](O)C67C(=O)O[C@@](C)(C8CCC(C)(C)O8)[C@@]6(O)CC[C@@]7(C)C5CCC4C3(C)C)OC[C@@H](O[C@@H]3O[C@H](CO)[C@@H](O)[C@H](O)[C@H]3O)[C@@H]2O)[C@H](O)[C@@H](O)[C@@H]1O` (some centres not stated): the Ki was determined as 30 µM.
